Measurements: the NIST ThermoML archive (doi:10.1021/je0602824)

Assay: xn = mol fraction of the nth substance listed
Conditions: 101 kPa, Liquid

CCOS(=O)(=O)[O-].CCn1cc[n+](C)c1 [1-ethyl-3-methylimidazolium ethyl sulfate] + O
Conditions | mass density [kg/m3] | viscosity [mPa·s]
278.15 K, x2 = 0 | 1251.12 | 308
278.15 K, x2 = 0.0001 | – | 308
278.15 K, x2 = 0.2112 | 1246.59 | –
278.15 K, x2 = 0.2245 | – | 150
278.15 K, x2 = 0.4084 | – | 83
278.15 K, x2 = 0.4119 | 1239.56 | –
278.15 K, x2 = 0.5939 | 1227.74 | –
278.15 K, x2 = 0.5976 | – | 45
278.15 K, x2 = 0.7669 | 1201.83 | –
278.15 K, x2 = 0.7675 | – | 22
278.15 K, x2 = 0.8487 | 1175.63 | –
278.15 K, x2 = 0.9292 | 1120.63 | 6
278.15 K, x2 = 0.9683 | 1066.86 | –
278.15 K, x2 = 0.9916 | 1021.13 | –
288.15 K, x2 = 0 | 1244.13 | 166
288.15 K, x2 = 0.2112 | 1239.79 | –
288.15 K, x2 = 0.2245 | – | 86
288.15 K, x2 = 0.4084 | – | 49
288.15 K, x2 = 0.4119 | 1232.7 | –
288.15 K, x2 = 0.5939 | 1220.8 | –
288.15 K, x2 = 0.5976 | – | 27
288.15 K, x2 = 0.7669 | 1194.85 | –
288.15 K, x2 = 0.7675 | – | 14
288.15 K, x2 = 0.8487 | 1168.83 | –
288.15 K, x2 = 0.9292 | 1115.02 | 5
288.15 K, x2 = 0.9683 | 1063.25 | –
288.15 K, x2 = 0.9916 | 1019.46 | –
298.15 K, x2 = 0 | 1237.37 | 95
298.15 K, x2 = 0.2112 | 1232.99 | –
298.15 K, x2 = 0.2245 | – | 54
298.15 K, x2 = 0.4084 | – | 33
298.15 K, x2 = 0.4119 | 1225.85 | –
298.15 K, x2 = 0.5939 | 1213.87 | –
298.15 K, x2 = 0.5976 | – | 19
298.15 K, x2 = 0.7669 | 1187.81 | –
298.15 K, x2 = 0.7675 | – | 10
298.15 K, x2 = 0.8487 | 1161.92 | –
298.15 K, x2 = 0.9292 | 1109.14 | 4
298.15 K, x2 = 0.9683 | 1059.04 | –
298.15 K, x2 = 0.9916 | 1016.78 | –
308.15 K, x2 = 0 | 1230.61 | 62
308.15 K, x2 = 0.2112 | 1226.21 | –
308.15 K, x2 = 0.2245 | – | 36
308.15 K, x2 = 0.4084 | – | 23
308.15 K, x2 = 0.4119 | 1219.02 | –
308.15 K, x2 = 0.5939 | 1206.92 | –
308.15 K, x2 = 0.5976 | – | 14
308.15 K, x2 = 0.7669 | 1180.72 | –
308.15 K, x2 = 0.7675 | – | 8
308.15 K, x2 = 0.8487 | 1154.9 | –
308.15 K, x2 = 0.9292 | 1103 | 4
308.15 K, x2 = 0.9683 | 1054.27 | –
308.15 K, x2 = 0.9916 | 1013.26 | –
318.15 K, x2 = 0 | 1223.9 | 41
318.15 K, x2 = 0.2112 | 1219.45 | –
318.15 K, x2 = 0.2245 | – | 26
318.15 K, x2 = 0.4084 | – | 17
318.15 K, x2 = 0.4119 | 1212.21 | –
318.15 K, x2 = 0.5939 | 1199.97 | –
318.15 K, x2 = 0.5976 | – | 11
318.15 K, x2 = 0.7669 | 1173.56 | –
318.15 K, x2 = 0.7675 | – | 6
318.15 K, x2 = 0.8487 | 1147.77 | –
318.15 K, x2 = 0.9292 | 1096.59 | 3
318.15 K, x2 = 0.9683 | 1049.01 | –
318.15 K, x2 = 0.9916 | 1009.03 | –
328.15 K, x2 = 0 | 1217.23 | 30
328.15 K, x2 = 0.2112 | 1212.74 | –
328.15 K, x2 = 0.2245 | – | 19
328.15 K, x2 = 0.4084 | – | 13
328.15 K, x2 = 0.4119 | 1205.41 | –
328.15 K, x2 = 0.5939 | 1193.01 | –
328.15 K, x2 = 0.5976 | – | 9
328.15 K, x2 = 0.7669 | 1166.34 | –
328.15 K, x2 = 0.7675 | – | 6
328.15 K, x2 = 0.8487 | 1140.52 | –
328.15 K, x2 = 0.9292 | 1089.92 | 3
328.15 K, x2 = 0.9683 | 1043.29 | –
328.15 K, x2 = 0.9916 | 1004.16 | –
338.15 K, x2 = 0 | 1210.6 | 21
338.15 K, x2 = 0.2112 | 1206.05 | –
338.15 K, x2 = 0.2245 | – | 15
338.15 K, x2 = 0.4084 | – | 11
338.15 K, x2 = 0.4119 | 1198.63 | –
338.15 K, x2 = 0.5939 | 1186.03 | –
338.15 K, x2 = 0.5976 | – | 7
338.15 K, x2 = 0.7669 | 1159.05 | –
338.15 K, x2 = 0.7675 | – | 5
338.15 K, x2 = 0.8487 | 1133.14 | –
338.15 K, x2 = 0.9292 | 1083 | 3
338.15 K, x2 = 0.9683 | 1037.15 | –
338.15 K, x2 = 0.9916 | 998.72 | –
348.15 K, x2 = 0 | 1204.01 | 17
348.15 K, x2 = 0.2112 | 1199.4 | –
348.15 K, x2 = 0.2245 | – | 12
348.15 K, x2 = 0.4084 | – | 9
348.15 K, x2 = 0.4119 | 1191.91 | –
348.15 K, x2 = 0.5939 | 1179.05 | –
348.15 K, x2 = 0.5976 | – | 6
348.15 K, x2 = 0.7669 | 1151.68 | –
348.15 K, x2 = 0.7675 | – | 4
348.15 K, x2 = 0.8487 | 1125.7 | –
348.15 K, x2 = 0.9292 | 1075.83 | 2
348.15 K, x2 = 0.9683 | 1030.61 | –
348.15 K, x2 = 0.9916 | 992.76 | –
